Like-named read-outs stand apart in the source and are kept apart here.
What was measured:
[1] = target: NTR1 (Homo sapiens (Human), UniProt P30989); experiment: Radioligand binding assay NTR1 (example part II); details: 0.05 nM 125I-(Tyr3-neurotensin), 60 min at 4° C.; read-out: IC50 [nM] RLB
Outline: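 Membranes from CHO cells recombinantly expressing human NTR1 incubated with 0.05 nM 125I-(Tyr3-neurotensin) and serially diluted test compounds. Bound radioligand quantified by scintillation counting; displacement expressed as IC50.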

[2] = Plasma stability assay, human plasma; assay type: in vitro ADME
Protocol: The plasma stability assay was performed to measure the degradation of compounds of the present invention in plasma. This is an important characteristic of a compound as compounds, with the exception of pro-drugs, which rapidly degrade in plasma generally show poor in vivo efficacy.
The plasma was spiked with a 10 mM analyte solution in dimethyl sulfoxide to a final concentration of 10 μM, vortexed, and aliquotted to 50 μl samples. Two aliquots were stored at −20° C. until further treatment. Another two aliquots were incubated using an Eppendorf Thermomixer at 37° C. for 1, 4, and 24 hours. Sample clean-up was performed using a protein precipitation plate (Phenomenex Strata Impact, 64722-1-324-1) and using acetonitrile as precipitation agent. […] An aliquot of 10 μl was diluted with 90 μl 0.1% aqueous trifluoroacetic acid solution. The determination of the analyte in the clean sample solutions was performed on a Thermo TSQ Quantum Ultra triple quadrupole mass spectrometer equipped with a thermo Surveyor HPLC. The chromatographic separation was carried out on a Phenomenex Kinetex XB-C18 HPLC column (50×2 mm, […] particle size) with gradient elution using a mixture of 0.01% trifluoroacetic acid and 0.05% formic acid in water as eluent A and methanol as eluent B (20% B to 100% in 8 min, 400 μl/min, 40° C.). For mass spectrometric detection the selected reaction monitoring (SRM) was used.
Quantitation was performed by external matrix calibration using an internal standard.

[3] = tested on: alpha 1 (non-selective); experiment: ExpresSProfile: alpha1 adrenergic receptor, antagonist radioligand; assay type: binding; details: Test Concentration 1.0E−05 M
[4] = target: CCK1 (CCKA) (h) (Homo sapiens (Human), UniProt P32238); experiment: ExpresSProfile: cholecystokinin receptor 1, agonist radioligand; assay type: binding; details: Test Concentration 1.0E−05 M
[5] = target: ETA (h) (Homo sapiens (Human), UniProt P25101); experiment: ExpresSProfile: endothelin receptor A, agonist radioligand; assay type: binding; details: Test Concentration 1.0E−05 M
[6] = tested on: GABA (non-selective); experiment: ExpresSProfile: GABA, agonist radioligand; assay type: binding; details: Test Concentration 1.0E−05 M
[7] = target: MC4 (h) (Homo sapiens (Human), UniProt P32245); experiment: ExpresSProfile: melanocortin receptor 4, agonist radioligand; assay type: binding; details: Test Concentration 1.0E−05 M
[8] = target: NK3 (h) (Homo sapiens (Human), UniProt P29371); experiment: ExpresSProfile: neurokinin receptor 3, antagonist radioligand; assay type: binding; details: Test Concentration 1.0E−05 M
[9] = target: kappa (KOP) (Rattus norvegicus, UniProt P34975); experiment: ExpresSProfile: kappa opioid receptor, agonist radioligand; assay type: binding; details: Test Concentration 1.0E−05 M
[10] = target: NOP (ORL1) (h) (Homo sapiens (Human), UniProt P41146); experiment: ExpresSProfile: nociception receptor, agonist radioligand; assay type: binding; details: Test Concentration 1.0E−05 M
[11] = target: 5-HT1B (Rattus norvegicus, UniProt P28564); experiment: ExpresSProfile: 5-hydroxytryptamine receptor 1B, antagonist radioligand; assay type: binding; details: Test Concentration 1.0E−05 M
[12] = tested on: Ca2+ channel (L, verapamil site) (phenylalkylamine); experiment: ExpresSProfile: Ca2+ channel, antagonist radioligand; assay type: binding; details: Test Concentration 1.0E−05 M
[13] = tested on: KV channel; experiment: ExpresSProfile: KV channel, antagonist radioligand; assay type: binding; details: Test Concentration 1.0E−05 M
[14] = tested on: SKCa channel; experiment: ExpresSProfile: SKCa channel, antagonist radioligand; assay type: binding; details: Test Concentration 1.0E−05 M
[15] = target: 5-HT transporter (h) (Homo sapiens (Human), UniProt P31645); experiment: ExpresSProfile: 5-HT transporter, antagonist radioligand; assay type: binding; details: Test Concentration 1.0E−05 M
[16] = read-out: % Inhibition of Control Specific Binding
[17] = read-out: % of Control Specific Binding 1st
[18] = read-out: % of Control Specific Binding 2nd
[19] = read-out: % of Control Specific Binding Mean

Sequence of NK3 (h) (P29371 whole entry): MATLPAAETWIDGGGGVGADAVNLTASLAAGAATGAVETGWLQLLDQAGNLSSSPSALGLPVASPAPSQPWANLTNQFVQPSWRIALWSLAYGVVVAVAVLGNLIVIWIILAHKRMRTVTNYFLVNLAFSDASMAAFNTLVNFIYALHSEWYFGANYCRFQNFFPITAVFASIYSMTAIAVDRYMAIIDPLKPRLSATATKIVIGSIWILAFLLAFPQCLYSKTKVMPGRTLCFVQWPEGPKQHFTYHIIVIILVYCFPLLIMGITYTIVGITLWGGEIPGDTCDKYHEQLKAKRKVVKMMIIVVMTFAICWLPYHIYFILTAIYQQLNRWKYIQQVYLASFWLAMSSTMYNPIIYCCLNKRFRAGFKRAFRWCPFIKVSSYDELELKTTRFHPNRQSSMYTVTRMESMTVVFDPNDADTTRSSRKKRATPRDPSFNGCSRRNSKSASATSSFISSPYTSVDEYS
Sequence of NOP (ORL1) (h) (P41146 whole entry): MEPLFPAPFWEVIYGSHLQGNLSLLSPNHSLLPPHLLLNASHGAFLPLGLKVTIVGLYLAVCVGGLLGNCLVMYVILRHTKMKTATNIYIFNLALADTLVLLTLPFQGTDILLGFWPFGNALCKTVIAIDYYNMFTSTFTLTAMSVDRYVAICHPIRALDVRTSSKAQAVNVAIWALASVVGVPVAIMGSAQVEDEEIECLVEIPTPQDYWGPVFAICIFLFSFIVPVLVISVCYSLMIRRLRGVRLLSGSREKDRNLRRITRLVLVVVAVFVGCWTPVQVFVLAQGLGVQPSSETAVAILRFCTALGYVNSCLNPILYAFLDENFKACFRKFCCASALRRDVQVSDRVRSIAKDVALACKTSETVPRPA
Sequence of CCK1 (CCKA) (h) (P32238 whole entry): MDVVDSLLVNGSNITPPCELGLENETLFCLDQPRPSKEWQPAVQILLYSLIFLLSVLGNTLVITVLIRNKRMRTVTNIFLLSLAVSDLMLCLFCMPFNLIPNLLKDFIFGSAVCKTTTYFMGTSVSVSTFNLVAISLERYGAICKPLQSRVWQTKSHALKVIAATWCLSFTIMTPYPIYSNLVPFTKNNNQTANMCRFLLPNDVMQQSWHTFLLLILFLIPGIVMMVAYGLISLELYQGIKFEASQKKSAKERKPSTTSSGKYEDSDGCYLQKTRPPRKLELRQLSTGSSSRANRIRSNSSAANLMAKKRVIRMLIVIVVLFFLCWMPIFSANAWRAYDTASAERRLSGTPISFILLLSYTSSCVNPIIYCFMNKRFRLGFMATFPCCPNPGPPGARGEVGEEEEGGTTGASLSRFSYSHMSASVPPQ
Sequence of MC4 (h) (P32245 whole entry): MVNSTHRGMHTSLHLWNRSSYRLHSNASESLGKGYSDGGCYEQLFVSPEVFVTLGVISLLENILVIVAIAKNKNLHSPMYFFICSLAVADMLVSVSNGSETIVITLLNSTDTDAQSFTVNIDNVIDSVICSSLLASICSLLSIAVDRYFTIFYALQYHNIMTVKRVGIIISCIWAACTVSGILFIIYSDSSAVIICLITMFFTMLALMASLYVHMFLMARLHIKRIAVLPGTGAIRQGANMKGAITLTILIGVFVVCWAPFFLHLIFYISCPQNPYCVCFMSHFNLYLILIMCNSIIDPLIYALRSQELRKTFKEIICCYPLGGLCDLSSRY
Sequence of ETA (h) (P25101 21-427): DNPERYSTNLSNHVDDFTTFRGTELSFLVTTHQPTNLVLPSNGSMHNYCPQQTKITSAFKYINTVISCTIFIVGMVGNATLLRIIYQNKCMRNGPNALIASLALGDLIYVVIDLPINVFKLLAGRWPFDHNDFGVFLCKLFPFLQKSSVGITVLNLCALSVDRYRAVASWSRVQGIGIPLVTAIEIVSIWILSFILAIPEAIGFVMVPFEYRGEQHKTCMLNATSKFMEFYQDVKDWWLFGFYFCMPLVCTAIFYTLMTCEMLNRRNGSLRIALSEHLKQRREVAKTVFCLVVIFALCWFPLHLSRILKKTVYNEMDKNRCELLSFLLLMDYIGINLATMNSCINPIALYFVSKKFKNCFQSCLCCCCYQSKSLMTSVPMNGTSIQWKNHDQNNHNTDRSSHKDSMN
Sequence of 5-HT transporter (h) (P31645 whole entry): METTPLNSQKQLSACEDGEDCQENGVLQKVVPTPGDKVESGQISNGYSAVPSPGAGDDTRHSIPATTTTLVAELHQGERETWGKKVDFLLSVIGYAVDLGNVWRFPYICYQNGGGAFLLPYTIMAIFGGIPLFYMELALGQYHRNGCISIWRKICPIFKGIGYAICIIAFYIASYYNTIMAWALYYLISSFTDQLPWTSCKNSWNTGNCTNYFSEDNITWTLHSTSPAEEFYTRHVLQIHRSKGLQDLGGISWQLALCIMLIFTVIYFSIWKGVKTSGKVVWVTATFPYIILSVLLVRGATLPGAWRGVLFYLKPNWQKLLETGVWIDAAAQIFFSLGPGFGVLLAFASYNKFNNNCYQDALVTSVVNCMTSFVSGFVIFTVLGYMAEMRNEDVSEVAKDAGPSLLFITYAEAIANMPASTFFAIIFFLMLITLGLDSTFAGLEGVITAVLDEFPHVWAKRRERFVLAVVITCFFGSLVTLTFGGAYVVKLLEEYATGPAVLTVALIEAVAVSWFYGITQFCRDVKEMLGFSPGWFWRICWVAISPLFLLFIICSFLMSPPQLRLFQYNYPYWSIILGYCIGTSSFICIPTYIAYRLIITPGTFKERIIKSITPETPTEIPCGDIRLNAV
Sequence of NTR1 (P30989 whole entry): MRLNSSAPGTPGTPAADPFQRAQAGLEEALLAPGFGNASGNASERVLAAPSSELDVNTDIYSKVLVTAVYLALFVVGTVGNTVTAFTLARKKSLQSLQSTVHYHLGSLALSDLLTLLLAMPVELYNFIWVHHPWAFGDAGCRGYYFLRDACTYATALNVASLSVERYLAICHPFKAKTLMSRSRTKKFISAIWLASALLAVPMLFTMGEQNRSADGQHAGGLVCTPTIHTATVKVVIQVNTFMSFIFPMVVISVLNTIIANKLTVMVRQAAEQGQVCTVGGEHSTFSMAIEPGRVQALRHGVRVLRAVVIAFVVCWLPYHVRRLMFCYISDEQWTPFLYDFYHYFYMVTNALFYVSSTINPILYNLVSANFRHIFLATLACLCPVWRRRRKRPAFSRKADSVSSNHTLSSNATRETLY

COc1cccc(OC)c1-c1cc(C(=O)NC2(C(=O)O)C3CC4CC(C3)CC2C4)nn1-c1ccc(C(=O)N(C)CCCN(C)CCCN(C)C(=O)CN2CCN(CC(=O)O)CCN(CC(=O)O)CCN(CC(=O)O)CC2)cc1C(C)C (stereo not shown) [(IIIa), 2-{[1-{4-[(3-{[3-(DOTA-methyl-amino)-propyl]-methyl-amino}-propyl)-methyl-carbamoyl]-2-isopropyl-phenyl}-5-(2,6-dimethoxy-phenyl)-1H-pyrazole-3-carbonyl]-amino}-adamantane-2-carboxylic acid]
IC50 [1]: 2.9 nM
stability in human plasma [2]: highly stable
% remaining after 24 h incubation, Human plasma ([2]; 10 μM, 37° C., 24 h): >90%
% Inhibition of Control Specific Binding [3]: −9%
% of Control Specific Binding 1st [3]: 106.2%
% of Control Specific Binding 2nd [3]: 111.1%
% of Control Specific Binding Mean [3]: 108.7%
inhibition at 10 µM [4, 16]: -18%
remaining activity at 10 µM [4, 17]: 102%
remaining activity at 10 µM [4, 18]: 135%
remaining activity at 10 µM [4, 19]: 118%
inhibition at 10 µM [5, 16]: -10%
remaining activity at 10 µM [5, 17]: 114%
remaining activity at 10 µM [5, 18]: 105%
remaining activity at 10 µM [5, 19]: 110%
% Inhibition of Control Specific Binding [6]: −6%
% of Control Specific Binding 1st [6]: 101.9%
% of Control Specific Binding 2nd [6]: 109.9%
% of Control Specific Binding Mean [6]: 105.9%
inhibition at 10 µM [7, 16]: -8%
remaining activity at 10 µM [7, 17]: 113%
remaining activity at 10 µM [7, 18]: 104%
remaining activity at 10 µM [7, 19]: 108%
inhibition at 10 µM [8, 16]: -1%
remaining activity at 10 µM [8, 17]: 102%
remaining activity at 10 µM [8, 18]: 98.5%
remaining activity at 10 µM [8, 19]: 100%
inhibition at 10 µM [9, 16]: -2%
remaining activity at 10 µM [9, 17]: 111%
remaining activity at 10 µM [9, 18]: 92.3%
remaining activity at 10 µM [9, 19]: 102%
inhibition at 10 µM [10, 16]: -7%
remaining activity at 10 µM [10, 17]: 104%
remaining activity at 10 µM [10, 18]: 109%
remaining activity at 10 µM [10, 19]: 107%
inhibition at 10 µM [11, 16]: -7%
remaining activity at 10 µM [11, 17]: 107%
remaining activity at 10 µM [11, 18]: 106%
remaining activity at 10 µM [11, 19]: 107%
% Inhibition of Control Specific Binding [12]: 0%
% of Control Specific Binding 1st [12]: 96.1%
% of Control Specific Binding 2nd [12]: 103.7%
% of Control Specific Binding Mean [12]: 99.9%
% Inhibition of Control Specific Binding [13]: −4%
% of Control Specific Binding 1st [13]: 104.3%
% of Control Specific Binding 2nd [13]: 104.2%
% of Control Specific Binding Mean [13]: 104.3%
% Inhibition of Control Specific Binding [14]: 4%
% of Control Specific Binding 1st [14]: 97.3%
% of Control Specific Binding 2nd [14]: 95.2%
% of Control Specific Binding Mean [14]: 96.2%
inhibition at 10 µM [15, 16]: -13%
remaining activity at 10 µM [15, 17]: 103%
remaining activity at 10 µM [15, 18]: 123%
remaining activity at 10 µM [15, 19]: 113%

Reference: patent publication US10799605B2 (3B PHARMACEUTICALS GMBH, priority 2014, dated 2020)
